Columns and labels:
[1] = Long-term tracer stability: polarization and net intensity after storage (Tables 2(a), 2(b)); format: physicochemical
Excerpt: The data presented in Tables 2(a) and 2(b) below indicate that a tracer which has an ethylene (—CH═CH—) linkage group between the fluorescein and the ligand component of the tracer remains stable at varied temperatures for a period of at least one and one half years. While a tracer having the chemical structure shown in FIG. 5 was employed to generate the data presented in Table 2(a), a tracer having the chemical structure shown in FIG. 30 was employed to generate the data presented in Table 2(b).

[2] = tested on: antibodies raised against an immunogen having the structure shown in FIG. 28; assay: Fluorescence polarization immunoassay cross-reactivity in drug-free normal human urine, tracer of FIG. 5; format: binding, sheep; details: for amount of the test compound found in the resulting human urine: 200 ng/mL added to drug-free urine, secobarbital standard
Protocol: (§1) The antibodies of the present invention are prepared by eliciting a response in sheep to the immunogens described supra. The immunogen is administered to animals or to in vitro cultures of immunocompetent cells by a series of innoculations, in a manner well known to those skilled in the art.
(§2) The tracer formulation presently preferred is 150 nanomolar tracer in: 0.1 molar phosphate buffer at pH 6.2; 5% sodium 5-sulfosalicylate; 0.1% sodium azide; and 0.01% bovine gamma-globulin. The antiserum formulation comprises sheep serum diluted with: 0.1 molar tris buffer at pH 7.5; 0.1% sodium azide; 0.1% bovine gamma-globulin; and 2% ethylene glycol (volume/volume). The dilution buffer comprises: 0.1 molar sodium phosphate at pH 7.5; 0.1% sodium azide; and 0.01% bovine gamma-globulin. The pretreatment solution comprises: 0.01% bovine gamma-globulin; 0.1 molar tris buffer at pH 7.5; 0.1% sodium azide; and 10 mg/mL riboflavin binding protein.
(§3) A minimum of fifty microliters of urine is required. The calibrators, controls, or unknown samples are pipetted directly into the sample well of the TDx® or ADx® sample cartridge. […] The assay procedure from this point is fully automated.
(§4) If a manual assay is being performed, then the sample is mixed with the pretreatment solution in dilution buffer and a background reading is taken. The tracer and antibody are then mixed into the test solution. After incubation, a fluorescence polarization reading is taken.
(§5) The net fluorescence polarization value of each calibrator, control or sample is determined and is printed on the output tape of an instrument such as the Abbott TDx® Analyzer. […] The concentration of each control or sample is read off the stored calibration curve and printed on the output tape.
Cross-reactivity was tested by the method of the present invention for the commonly-used barbiturates. […]
The five columns indicate the following information:
In other words, when 200 ng of secobarbital were added to drug-free normal human urine, approximately 200 ng of secobarbital were detected in the resulting urine sample. Thus, the closer the factor is to 1.0, the more accurate the assay is with respect to the particular test compound analyzed.
The percent cross-reactivity value presented in column five was obtained by the following mathematical formula: [formula]
(§6) The five columns in Tables 4(a) and 4(b) indicate the same information as is described above for Table 3(a).

[3] = tested on: antibodies raised against an immunogen having the structure shown in FIG. 29; assay: Fluorescence polarization immunoassay cross-reactivity, tracer of FIG. 31; format: binding, sheep; details: tracer FIG. 31
Protocol: as §1

[4] = tested on: antibodies raised against an immunogen having the structure shown in FIG. 29; assay: Fluorescence polarization immunoassay cross-reactivity in drug-free normal human urine, tracer of FIG. 30; format: binding, sheep; details: for % CR / Conc. Found: tracer FIG. 30; for amount of the test compound found in the resulting human urine: 200 ng/mL added to drug-free urine, secobarbital standard
Protocol: as §1, §2, §3, §4, §5
Cross-reactivity was tested by the method of the present invention for the commonly-used barbiturates. In each case, compounds were assayed on the Abbott Laboratories+ TDx® Clinical Analyzer or the ADx® Drugs of Abuse System after adding a known quantity (200 ng/mL) of the barbiturate test compound to drug-free normal human urine.
as §6

[5] = 200 ng/mL added, listed as secobarbital

CCCC(C)C1(C/C=C/C(=O)NCc2c(O)ccc3c2Oc2cc(O)ccc2C32OC(=O)c3ccccc32)C(=O)NC(=O)NC1=O (stereo not shown) [FIG. 5]
Average Net Intensity ([1]; 1 Year, 2-8 °C): 3161-4615 | Polarization ([1]; 1 Year, 2-8 °C): 204.85 | Average Net Intensity ([1]; 18 Months, 2-8 °C): 3304-4798 | Polarization ([1]; 18 Months, 2-8 °C): 199.29 | Average Net Intensity ([1]; Day 0, 2-8 °C): 3400-5000 | Polarization ([1]; Day 0, 2-8 °C): 209.17 | Average Net Intensity ([1]; Day 1, 2-8 °C): 3290-4733 | Polarization ([1]; Day 1, 2-8 °C): 206.61 | Average Net Intensity ([1]; Day 2, 2-8 °C): 3200-4670 | Polarization ([1]; Day 2, 2-8 °C): 207.07 | Average Net Intensity ([1]; Day 3, 2-8 °C): 3367-4895 | Polarization ([1]; Day 3, 2-8 °C): 208.05 | Average Net Intensity ([1]; Day 3, 37 °C): 3400-4910 | Polarization ([1]; Day 3, 37 °C): 207.60 | Average Net Intensity ([1]; Day 3, 45 °C): 3400-4950 | Polarization ([1]; Day 3, 45 °C): 205.51 | Average Net Intensity ([1]; Day 3, −20 °C): 3395-4965 | Polarization ([1]; Day 3, −20 °C): 207.38 | Average Net Intensity ([1]; Month 2, 2-8 °C): 3282-4777 | Polarization ([1]; Month 2, 2-8 °C): 207.21 | Average Net Intensity ([1]; Month 4, 2-8 °C): 3210-4775 | Polarization ([1]; Month 4, 2-8 °C): 205.59 | Average Net Intensity ([1]; Month 8, 2-8 °C): 3150-4677 | Polarization ([1]; Month 8, 2-8 °C): 206.85 | Average Net Intensity ([1]; Week 1, 2-8 °C): 3400-4900 | Polarization ([1]; Week 1, 2-8 °C): 208.25 | Average Net Intensity ([1]; Week 1, 37 °C): 3500-5000 | Polarization ([1]; Week 1, 37 °C): 202.78 | Average Net Intensity ([1]; Week 1, 45 °C): 3550-5200 | Polarization ([1]; Week 1, 45 °C): 200.11 | Average Net Intensity ([1]; Week 1, −20 °C): 3300-4800 | Polarization ([1]; Week 1, −20 °C): 208.46 | Average Net Intensity ([1]; Week 2, 2-8 °C): 3100-4590 | Polarization ([1]; Week 2, 2-8 °C): 210.41 | Average Net Intensity ([1]; Week 2, −20 °C): 3180-4635 | Polarization ([1]; Week 2, −20 °C): 208.85 | Average Net Intensity ([1]; Week 4, 2-8 °C): 3395-4988 | Polarization ([1]; Week 4, 2-8 °C): 210.35

CC(C(=O)O)c1cccc(Oc2ccccc2)c1 (stereo not shown) [Fenoprofen]
amount of the test compound found ([2]; 215 μg/mL added): 180 ng/mL | factor ([2]; 215 μg/mL added): 0.00084 | percent cross reactivity ([2]; 215 μg/mL added): 0.084% | amount of the test compound found ([2]; 430 μg/mL added): 290 ng/mL | factor ([2]; 430 μg/mL added): 0.00067 | percent cross reactivity ([2]; 430 μg/mL added): 0.067% | % CR ([3]; Conc. Added 200 (ng/mL)): 0.02% | Conc. Found ([3]; Conc. Added 200 (ng/mL)): 40 ng/mL | % CR ([4]; Conc. Added 200 (ng/mL)): 0.015% | Conc. Found ([4]; Conc. Added 200 (ng/mL)): 30 ng/mL

CCC1(c2ccccc2)CCC(=O)NC1=O (stereo not shown) [Glutethimide]
amount of the test compound found ([2]; 1 μg/mL added): ND (None detected: Concentration less than the sensitivity of the assay (60 ng/mL)) | amount of the test compound found ([2]; 10 μg/mL added): 180 ng/mL | factor ([2]; 10 μg/mL added): 0.018 | percent cross reactivity ([2]; 10 μg/mL added): 1.80% | % CR ([3]; Conc. Added 10 (ng/mL)): 4.70% | Conc. Found ([3]; Conc. Added 10 (ng/mL)): 470 ng/mL | amount of the test compound found ([4]; 1 μg/mL added): 89 ng/mL | factor ([4]; 1 μg/mL added): 0.089 | percent cross reactivity ([4]; 1 μg/mL added): 8.90% | amount of the test compound found ([4]; 10 μg/mL added): 480 ng/mL | factor ([4]; 10 μg/mL added): 0.048 | percent cross reactivity ([4]; 10 μg/mL added): 4.80% | % CR ([4]; Conc. Added 10 (ng/mL)): 4.70% | Conc. Found ([4]; Conc. Added 10 (ng/mL)): 470 ng/mL

CC(C)Cc1ccc(C(C)C(=O)O)cc1 (stereo not shown) [Ibuprofen]
amount of the test compound found ([2]; 1 μg/mL added): ND (None detected: Concentration less than the sensitivity of the assay (60 ng/mL)) | amount of the test compound found ([2]; 10 μg/mL added): ND (None detected: Concentration less than the sensitivity of the assay (60 ng/mL)) | amount of the test compound found ([2]; 100 μg/mL added): 70 ng/mL | factor ([2]; 100 μg/mL added): 0.0007 | percent cross reactivity ([2]; 100 μg/mL added): 0.07% | % CR ([3]; Conc. Added 1000 (ng/mL)): 0.005% | Conc. Found ([3]; Conc. Added 1000 (ng/mL)): 50 ng/mL | % CR ([4]; Conc. Added 1000 (ng/mL)): 0.002% | Conc. Found ([4]; Conc. Added 1000 (ng/mL)): 20 ng/mL

CC(C(=O)O)c1ccc(CC(C)(C)O)cc1 (stereo not shown) [OH-Ibuprofen]
amount of the test compound found ([2]; 1 μg/mL added): ND (None detected: Concentration less than the sensitivity of the assay (60 ng/mL)) | amount of the test compound found ([2]; 10 μg/mL added): ND (None detected: Concentration less than the sensitivity of the assay (60 ng/mL)) | amount of the test compound found ([2]; 100 μg/mL added): ND (None detected: Concentration less than the sensitivity of the assay (60 ng/mL)) | amount of the test compound found ([2]; 1000 μg/mL added): 60 ng/mL | factor ([2]; 1000 μg/mL added): 0.00006 | percent cross reactivity ([2]; 1000 μg/mL added): 0.006%

CCCC(C)C1(CC)C(=O)NC(=O)NC1=O (stereo not shown) [Pentobarbital]
factor which overestimates or underestimates the compound assayed for ([2]; 200 ng/mL added): 1.05 | percent cross reactivity ([2]; 200 ng/mL added): 105% | amount of the test compound found in the resulting human urine [2]: 210 ng/mL | % CR ([3]; Conc. Added 1200 ng/mL): 64% | Conc. Found ([3]; Conc. Added 1200 ng/mL): 770 ng/mL | factor which overestimates or underestimates the compound assayed for ([4]; 200 ng/mL added): 0.65 | percent cross reactivity ([4]; 200 ng/mL added): 65% | amount of the test compound found in the resulting human urine [4]: 129 ng/mL | % CR ([4]; Conc. Added 1200 ng/mL): 62% | Conc. Found ([4]; Conc. Added 1200 ng/mL): 740 ng/mL

C=CCC1(C(C)CCC)C(=O)NC(=O)NC1=O (stereo not shown) [Secobarbital]
factor which overestimates or underestimates the compound assayed for ([2]; 200 ng/mL added): 1.00 | percent cross reactivity ([2]; 200 ng/mL added): 100% | amount of the test compound found in the resulting human urine [2]: 200 ng/mL | factor which overestimates or underestimates the compound assayed for [2, 5]: 1.0 | percent cross reactivity [2, 5]: 100% | factor which overestimates or underestimates the compound assayed for ([4]; 200 ng/mL added): 1.00 | percent cross reactivity ([4]; 200 ng/mL added): 100% | amount of the test compound found in the resulting human urine [4]: 200 ng/mL

Butobarbital
% CR ([4]; Conc. Added 1200 ng/mL): 48% | Conc. Found ([4]; Conc. Added 1200 ng/mL): 580 ng/mL
